Results taken from US20090076067A1, “PHARMACEUTICAL COMPOSITION COMPRISING AZARHODACYANINE COMPOUND AS ACTIVE INGREDIENT” (priority 2005, published 2009).

Key:
[1] = Rat L6 cell proliferation inhibition test; format: cell-based; conditions: L6 cells (rat skeletal myoblasts), Table 1, Alamar Blue, read-out: EC50 cytotoxicity L6
Method: Rat-derived L6 cells (rat skeletal myoblast cell) were used for this test. […] The sample was cultured under CO2 concentration 5% and temperature 37° C. Either the composition of the invention or control was dissolved into DMSO, to prepare test solutions having predefined concentration.
The samples were precultured until logarithmic growth phase was reached. Then the culture was transferred to each well in a 96-well culture plate, and either test solution containing test compound at predefined concentration or DSMO without compound was added. The test solution was duplicated.
The plate was cultured in an incubator for 72 hours, to examine proliferation inhibition activity. The activity was examined as follows. Alamar Blue water solution 10 μL was added to each well, and culture was continued for 2 hours. Next, the culture plate was mounted on a fluorescence microplate reader (Spectramax Gemeni XS; Molecular Devices Corporation, U.S.), and irradiated with excitation wavelength 536 nm to determine fluorescence at 588 nm. The survival rate of L6 cells in the test solution sample and control sample was calculated.
Proliferation inhibition rate(%)={(C−A)/(B−A)}×100
A: Initial cell count B: Cell count in control after 3 days C: Cell count in test solution after 3 days

[2] = tested on: Plasmodium Falciparum k1 strain; assay: Chloroquine-resistant tropical malaria protozoa proliferation inhibition screening test; format: cell-based; conditions: for Selective toxicity: EC50 rat L6 cells / EC50 Chloroquine-resistant malaria protozoa; for EC50: Plasmodium falciparum, chloroquine-resistant K1 strain, 3H-hypoxanthine uptake, read-out: EC50 P. falciparum K1
Method: In this experiment, Plasmodium Falciparum k1 strain protozoa were used. The medium used in the experiment was filter-sterilized RPMI-1640 medium. To the medium human serum was added to achieve 5% concentration. The protozoa was cultured under condition of O2 concentration 3%, CO2 concentration 4%, N2 concentration 93%, and temperature 37° C.
The cultured malaria infected red blood cells were collected by centrifugation, diluted with non-infected red blood cells, to achieve initial infection rate 0.15%. The hematocrit was 2.5%.
To each well in a 96-well culture plate, 200 μL malaria infected culture was added, and either test solution containing test compound at predefined concentration or DMSO having no test compound was added. Each test solution was prepared in duplicate. After 48 hours culture under 37° C., hypoxanthine labeled with radioactive tritium (^3H) of 0.5 μCi was added to each well. After culturing under same condition for 24 hours, the product was collected on a glass fiber filter and washed. The intensity of radiation was measured by Beta plate liquid scintillation counter (Wallac Inc.), to determine malaria protozoa infection rate in test compound samples and control samples.
Using the malaria protozoa infection rate, the proliferation inhibition rate was calculated according to the following equation to determine 50% proliferation inhibition concentration (EC50).
(§1) Proliferation inhibition rate(%)={1−(b−a)/(c−a)}×100
(§2) a: initial infection rate b: infection rate of test compound solution c: infection rate of the control

[3] = tested on: Trypanosoma brucei rhodensiense (STIB 900 strain); assay: African trypanosoma protozoa proliferation inhibition screening test; format: cell-based; conditions: for Selective toxicity: EC50 rat L6 cells / EC50 African trypanosoma protozoa; for EC50: Trypanosoma brucei, STIB900, STIB 900 bloodstream form, 72 hours, Alamar blue, read-out: EC50 Trypanosoma brucei rhod.
Method: In this experiment, bloodstream form trypomastigote of Trypanosoma brucei rhodensiense (STIB 900 strain) was used. The medium used in the experiment was prepared as follows: to filter-sterilized MEM medium, 25 mM N-2-hydroxyethylpiperazine-2-ethane sulfonate (HEPES), 1 g/L glucose, 1% MEM nonessential amino acid, 0.2 mM 2-mercaptoethanol, 2 mM pyruvic calcium salt, 0.1 mM hypoxanthine, and 15% heat-treated horse serum were added. The protozoa was cultured under atmosphere of CO2 concentration 5% and temperature 37° C.
Either the compound of the invention or a positive control (melarsoprol) was dissolved into dimethylsulfoxide (DMSO) to prepare test solution having predefined concentration. To each well in a 96-well culture plate, medium containing 8×10^3 protozoa, and either test solution containing the test compound at predefined concentration or DMSO without compound was added. Then medium was added to achieve 100 μL. The test solution was duplicated.
The culture plate was cultured in an incubator for 72 hours, and the proliferation inhibition activity was examined. The activity was determined as follows. To each well, 10 μL Alamar blue water solution was added, then the plate was again cultured for 2 hours. Then the culture plate was mounted on a fluorescence microplate reader (Spectramax Gemeni XS; Molecular Devices Corporation, U.S.), and irradiated with 536 nm excitation wavelength to determine fluorescence at 588 nm. The trypanosoma infection rate of the sample containing the test composition and that of the control sample was calculated.
(§3) Using the protozoa infection rate thus obtained, the proliferation inhibition rate was calculated according to the following equation to determine 50% proliferation inhibition concentration (EC50).
as §1
(§4) a: initial infection rate b: infection rate of the test compound solution c: infection rate of the control

[4] = tested on: Trypanosoma cruzi (Tulahuen C2C4 strain); assay: American trypanosoma protozoa proliferation inhibition screening test; format: cell-based; conditions: for Selective toxicity: EC50 rat L6 cells / EC50 American trypanosoma protozoa; for EC50: Trypanosoma cruzi, Tulahuen C2C4 strain in rat L6 cells, 96 hours, CPRG/Nonidet, read-out: EC50 Trypanosoma cruzi
Method: In this experiment, amastigote and trypomastigote of Trypanosoma cruzi (Tulahuen C2C4 strain) infected to rat L6 cells were used. The medium used in the experiment was prepared as follows: to RPMI 1640 medium containing L6 cells, L-glutamine (200 mM) and fetal bovine serum was added to achieve concentration of 1% and 10%, respectively. The culture was conducted under CO2 concentration 5% and temperature 37° C.
Either the compound of the invention or a positive control (benznidazole) was dissolved into DMSO to prepare test solution having predefined concentration. To each well in a 96-well culture plate, medium containing 5×10^3 protozoa was added and precultured for 48 hours. After replacing the medium, either the test solution containing compound of the invention in predefined concentration or DMSO without compound was added. The test solution was duplicated.
The plate was cultured in an incubator for 96 hours, and the proliferation inhibition activity was examined. The activity was determined as follows. To each well, 50 μL CPRG/Nonidet was added, then left for 2 to 6 hours. Then the culture plate was mounted on an absorption microplate reader to determine absorption at 540 nm. The trypanosoma infection rate of the sample containing the test compound and that of the control sample was calculated.
as §3, §1, §4

[5] = tested on: Leishmania donovani (MHOM/ET/67/L82 strain); assay: Leishmania protozoa proliferation inhibition screening test; format: cell-based
Method: In this experiment, Leishmania donovani (MHOM/ET/67/L82 strain) was used. The protozoa were successively cultured in Syrian Golden hamsters to obtain amastigote. The medium used in the experiment was SM medium having heat-treated fetal bovine serum 10% added, and pH prepared to 5.4. The culture was conducted under CO2 concentration 5% and temperature 37° C.
Either the compound of the invention or a positive control (miltefosine) was dissolved into DMSO to prepare test solution having predefined concentration. To each well of a 96-well culture plate, medium containing predetermined number of protozoa was added and the culture was pre-treated. The concentration of amastigote was determined by CASY cell analyze system (Scharfe GMBH Co., Germany). Subsequently, either test solution containing compound of the invention in predefined concentration or DMSO without compound was added. The test solution was duplicated.
The plate was cultured in an incubator for 72 hours, and the proliferation inhibition activity was examined. The activity was determined as follows. To each well, 10 μL Alamar blue aqueous solution was added, then cultured again for 2 hours. Then the culture plate was mounted on a fluorescence microplate reader (Spectramax Gemeni XS; Molecular Devices Corporation, U.S), and irradiated 536 nm excitation wavelength to determine […] at 588 nm. The leishmania infection rate of the sample containing the test compound and that of the control sample was calculated.
as §3, §1, §2

[6] = tested on: Plasmodium berghei NK 65 strain; assay: animal or person; format: in vivo
Description: For a test to evaluate therapeutic effect of the compound, 4-day suppressive test which is commonly used for in vivo test to evaluate activity of anti-malaria compound was used. In this experiment, rodent malaria protozoa (Plasmodium berghei NK 65 strain) were used. The infected blood was collected from 5-weeks age (SPF) ICR strain male mouse which were infected intraperitoneally and successively cultured. From the caudal vein of the infected mouse, blood was collected to calculate infection rate. After confirming that infection rate was adequately elevated (10% to 20% infection), the malaria infected blood was collected from the heart of the mouse. The infection rate and count of the red blood cells (cells/mL) were calculated. The infected red blood cell was diluted with PBS buffer to achieve […] protozoa per 0.2 mL dose. The infected cells were injected to the caudal vein of uninfected mouse (ICR strain, male, 5-weeks age) to cause infection. Five mice were made into one group, and the test compound was administered in predefined concentration. From 2 hours after infection, the compound was administered every 24 hours for straight 4 days.
The compound of the invention to be used in this test was dissolved in saline (Otsuka Pharmaceutical Co., Ltd.) to obtain test solution of predefined concentration. When the compound was not dissolved in saline, it was dissolved in SSV (saline containing 0.5% sodium=carboxymethyl cellulose, 0.5% benzyl alcohol, 0.4% Tween 80) to prepare test solution. For the control group (non-treatment group), only saline (Otsuka) was administered. Positive controls S-1 to S-5 were dissolved in saline (Otsuka) or SSV in predetermined concentration to prepare test solution. When the compound was not dissolved in saline, it was dissolved in SSV. After measuring weight of each mouse, the dose for each mouse was calculated to achieve 5.0 to 40 mg concentration for weight1 kg.
Five mice were made into one group, and the test compound was administered intraperitoneally at predefined concentration. From 2 hours after infection, the compound was administered every 24 hours for straight 4 days. Subsequent to the 24 hours after last treatment, blood was collected from the tail of the mouse to prepare thin layer smear in order to count malaria protozoa infection in the treatment group and the control group under microscope. The mice showing maximum value and minimum value were excluded from the average calculation (average was calculated for three mice), to determine malaria protozoa infection rate (Parasitemia).
Using malaria protozoa infection rate thus calculated, recovery rate obtained from the test compound (suppression) was determined.
Recovery rate: suppression(%)=(b−a)/b×100 a: Protozoa infection rate in the treatment group b: Protozoa infection rate in the control group Mean survival days: MSD(day)=c−d c: Average days from the initial treatment (date of malaria infection) to the date of death for the treatment group (5 mice) d: Average days from the date of malaria infection to the date of death for the non-treatment (control) group (5 mice) […]
Tables 5 to 7 illustrate the recovery rate (%) and survival days (day) of malaria infected mice treated with intraperitoneal injection of the test compound and the control compound at predefined concentration. The meaning of symbols in the table is as follows.

With `CCN1C(=O)/C(=c2\nc3c(s2)=CC=CN3C)S/C1=N\c1scc[n+]1C.[Cl-]` [Compound A-20] the EC50 at 72 h [1] was 24.3 µg/mL, the Selective toxicity [2] was 2211 and the EC50 [2] was 0.011 µg/mL. The Selective toxicity [3] was 256, the EC50 [3] was 0.095 µg/mL and the Selective toxicity [4] was 32. The EC50 [4] was 0.763 µg/mL.
`CCN1C(=O)/C(=c2\nc3c(s2)=CC=CN3C)S/C1=N\c1sc2ccccc2[n+]1C.[Cl-]` [Compound A-21] showed an EC50 at 72 h [1] of 6.01 µg/mL, a Selective toxicity ([5]; EC50 rat L6 cells / EC50 leishmania protozoa) of 18 and an EC50 ([5]; Leishmania donovani, amastigote, 72 hours, Alamar blue, read-out: EC50 Leishmania donovani) of 0.343 µg/mL. It also gave a Selective toxicity [2] of 3005, an EC50 [2] of 0.002 µg/mL and a Selective toxicity [3] of 207. It also gave an EC50 [3] of 0.029 µg/mL, a Selective toxicity [4] of 41 and an EC50 [4] of 0.145 µg/mL.
For `CCn1c(=O)/c(=C2\C=CC=CN2C)s/c1=C1\S/C(=N\c2sc3cc(Cl)ccc3[n+]2C)N(C(C)C)C1=O` [Compound B-36], the EC50 at 72 h [1] was 10.5 µg/mL, the inhibition in vivo at 25 mg/kg/day ([6]; Plasmodium berghei, ip, 96 h, read-out: Recovery Rate (suppression)) was 95.5% and the “Survival days (mean survival days, treatment group minus control group)” value ([6]; dose 25 mg/kg/d intraperitoneally, 4 days) was 1.7 days. It also gave a Selective toxicity [2] of 1165, an EC50 [2] of 0.009 µg/mL and a Selective toxicity [3] of 85. The EC50 [3] was 0.123 µg/mL.
